Test results as given in US6242478A, “Five member ring sulfenate esters and thiosulfinate esters” (Wake Forest University, priority 1999, dated 2001).
Read-outs that look alike come from different tables or passages of the source.

Columns and labels:
[1] = test system: HIV-1RF; test: XTT cytoprotection assay, anti-HIV-1 activity (EC50) in CEM-SS cells; format: cell-based
Description: (§1) Both the XTT and monocyte/macrophage assays were used because infection of monocyte/macrophage cultures is thought to resemble infection of the nonproliferating pool of cells in vivo, while the parameters for the CEM-SS cells (XTT assay) are thought to reflect more closely the parameters for highly proliferating cells such as bone marrow and intestinal cells. The CEM-SS cell (XTT) assay is a more sensitive indicator of toxicity and all compounds disclosed herein have been screened in this assay.
Based on these preliminary screens, it is contemplated that an aromatic or large substituent at R1 (compare entries 1 & 4, 9 & 10) and a small substituent at R2 (compare entries 1, 2, & 3; 7, 8, & 9) may be best for anti-HIV-1 activity. Sulfur heterocycles containing more than 6 atoms don't appear to be active (entries 13 & 14). […] As observed for 8 previously (Rice et al., 1997), anti-HIV-1 activity and toxicity of 53a went down when treated with 2 equivalents of GSH (entry 6).

[2] = target: T1, NCp7 (Human immunodeficiency virus type 1 group M subtype B, UniProt P12493); test: NCp7 Trp37 fluorescence decrease assay; format: biochemical, HIV-1; conditions: for NCp7 Trp37 Assay, % Decrease RFU/30 min, without GSH: 50 μM
T1 construct: HIV-1 nucleocapsid protein (NCp7)

[3] = test system: CEM-SS cells; test: XTT assay, toxicity (IC50) in CEM-SS cells; format: cell-based; conditions: for IC50: Homo sapiens, CEM-SS, Table 3, read-out: XTT Anti-HIV-1 Assay IC50
Description: as §1

[4] = test system: Ferritin H mRNA; test: Ferritin H mRNA induction, Northern blot; format: cell-based, mouse; conditions: 80 μM, 24 hours
Experimental: (§2) BNL.CL2 cells were treated with Oltipraz, compound 121 described above, and compound 123 described above. All compounds were applied to the cells at 100 micromolar concentration for 24 hours.
(§3) Cells were exposed to compounds at a final concentration of 80 μM for 24 hours. RNA was isolated and analyzed by Northern blotting for the expression of the indicated genes. Control cells were incubated with vehicle alone (0.4% DMSO).
(§4) Northern blot: Treatment of BNL.CL2 cells with 100 μM Oltipraz, ALH-556, and ALH-562, ALH-561, ED 13.4, ED 14.6, DCF 070, ALH-490
(§5) BNL.CL2 cells (normal mouse embryonic liver cell line) were plated at ~3×10^5 cells/ml, grown for 16-24 hours, and treated with 0 μM and 100 μM Oltipraz, ALH-556 (121), and ALH-562 (123) for 24 hours. All three compounds were dissolved in DMSO and the final DMSO concentration present in all treatment conditions was 0.2%. BNL.CL2 cells were harvested by trypsinization and total RNA was isolated using the Trizol reagent (Gibco BRL) according to the manufacturer's procedures. 15 μg of RNA were run on a 1.1% agarose/6.6% formaldehyde gel and transferred overnight onto nitrocellulose membranes by capillary transfer using 20×SSC as transfer buffer. Subsequent to RNA transfer, the nitrocellulose membrane was baked at 80° C. for 2 hours. RNA was analyzed using a radiolabeled mouse ferritin H and human GST-α c-DNA. A human β-actin probe was used as an internal standard. The c-DNA probes were labeled with [α^32 P]dCTP by a random prime labeling. Hybridization of the c-DNA probes to the nitrocellulose membrane was performed at 68° C. for 60 minutes using the Quick-Hyb solution (Stratagene). Membranes were subjected to phosphoimager analysis after hybridization.

[5] = test system: GST alpha mRNA in BNL.CL2 cells; test: GST alpha mRNA induction, Northern blot; format: cell-based, mouse; conditions: for GST α induction (mRNA): 80 μM, Northern blot
Experimental: as §2, §3, §4, §5

[6] = test system: DT-diaphorase (NQO1) mRNA; test: NQO1 mRNA induction, Northern blot; format: cell-based, mouse; conditions: 80 μM, 24 hours
Experimental: as §2, §3, §4, §5

[7] = test system: NCp7 protein; conditions: cited from earlier work; for ejection of zinc from NCp7: in words; for TSQ NCp7 Assay: unit not given
[8] = test system: HIV-1ADA; conditions: fresh human monocyte/macrophage cultures, cited from earlier work; for activity against replication of monocytotropic HIV-1ADA: in words; for EC50: HIV-1ADA
[9] = test system: HIV-1RF; conditions: cited from earlier work; for EC50: CEM-SS cells, HIV-1RF, read-out: XTT assay EC50; for activity against HIV-1 in XTT-based cytoprotection assay: in words
[10] = test system: CEM-SS cells; conditions: toxicity, CEM-SS cells; read-out: XTT assay IC50; cited from earlier work
[11] = target: T2, NCp7 (Human immunodeficiency virus type 1 group M subtype B, UniProt P04591); conditions: DFT calculation (Maynard et al., 1998); cited from earlier work
T2 construct: HIV-1 nucleocapsid protein (NCp7)

[12] = test system: fresh human monocyte/macrophage cultures; conditions: toxicity; cited from earlier work
[13] = test system: glutathione-S-transferase (GST); conditions: cited from earlier work
[14] = target: T1, NCp7; conditions: 50 μM, reference compounds; cited from earlier work
[15] = test system: GST; conditions: mice; cited from earlier work
[16] = test system: GST; conditions: rats; cited from earlier work
[17] = Human immunodeficiency virus 1, CEM-SS, read-out: Maximum cytoprotection
[18] = Human immunodeficiency virus 1, CEM-SS, Table 3, read-out: XTT Anti-HIV-1 Assay EC50

Compound: COC(=O)C1=C(c2ccccc2)S(=O)OC1 (centres unmarked) [53h]
- Emax at 10 µM [1, 17]: 29%
- NCp7 Trp37 Assay, % Decrease RFU/30 min, without GSH [2]: 0 % Decrease RFU/30 min
- IC50 [3]: 22.5 µM

Compound: O=S1(=O)OCC=C1c1ccccc1 [ALH-490]
- Ferritin H induction (mRNA) [4]: +
- GST α induction (mRNA) ([5]; 24 hours): +
- NQO1 induction (mRNA) [6]: +

Compound: NC(=O)c1cccc(N=O)c1 [NOBA, 3-nitrosobenzamide]
- ejection of zinc from NCp7 [7]: reacted with the zinc fingers of NCp7 causing zinc ejection

Compound: CC(C)OC(=O)C1=C(c2ccccc2)[S+]([O-])SC1 (centres unmarked) [53c]
- Emax at 10 µM [1, 17]: 43.3%
- NCp7 Trp37 Assay, % Decrease RFU/30 min, without GSH [2]: 17.1 % Decrease RFU/30 min
- IC50 [3]: 15.2 µM

Compound: CC1=C(c2ccccc2)S(=O)OC1 (centres unmarked) [53f]
- EC50 [1, 18]: 5.9 µM
- EC50 relative to the best dithiane (8, NSC 624151) ([1]; in words): below that of the best dithiane
- cytoprotection / anti-HIV-1 activity ([1]; in words): possess anti-HIV-1 activity
- NCp7 Trp37 Assay, % Decrease RFU/30 min, without GSH [2]: 0 % Decrease RFU/30 min
- IC50 [3]: 16.9 µM

Compound: O=S1(=O)CC(CO)(CO)CS1 [compound 6]
- ejection of zinc from NCp7 [7]: promoted ejection of zinc
- activity against replication of monocytotropic HIV-1ADA [8]: active
- EC50 [9]: 34 µM
- activity against HIV-1 in XTT-based cytoprotection assay [9]: active
- IC50 [10]: 200 µM

Compound: CC1=C(C2=CCCCC2)[S+]([O-])SC1 (centres unmarked) [ED 14.6]
- Ferritin H induction (mRNA) [4]: +
- GST α induction (mRNA) ([5]; 24 hours): +
- NQO1 induction (mRNA) [6]: +

Compound: CC(C)(C)c1cc(O)ccc1O [t-BHQ]
- Ferritin H induction (mRNA) [4]: +
- GST α induction (mRNA) ([5]; 24 hours): +
- NQO1 induction (mRNA) [6]: +

Compound: O=S1(=O)C[C@@H](O)[C@H](O)CS1 (relative stereo) [compound 9]
- ejection of zinc from NCp7 [7]: promoted ejection of zinc
- TSQ NCp7 Assay [7]: 20
- ratio of electronegativity to hardness (.chi.^2 /.eta.) [11]: 0.2260
- EC50 [8]: 9.1 µM
- activity against replication of monocytotropic HIV-1ADA [8]: active
- EC50 [9]: 13 µM
- activity against HIV-1 in XTT-based cytoprotection assay [9]: active
- IC50 [12]: > 100 µM
- IC50 [10]: 135 µM

Compound: COC(=O)C1=C(c2ccccc2)[S+]([O-])SC1 (centres unmarked) [53a]
- anti-HIV-1 activity with GSH ([1]; 2 equivalents of GSH, in words): went down
- EC50 ([1]; Human immunodeficiency virus 1, CEM-SS, + GSH, 2 equivalents, read-out: XTT Anti-HIV-1 Assay EC50 with GSH): 17.3 µM
- EC50 [1, 18]: 6 µM
- EC50 relative to the best dithiane (8, NSC 624151) ([1]; in words): below that of the best dithiane
- cytoprotection / anti-HIV-1 activity ([1]; in words): possess anti-HIV-1 activity
- NCp7 Trp37 Assay, % Decrease RFU/30 min, with GSH ([2]; 50 μM with GSH): 16.7 % Decrease RFU/30 min
- NCp7 Trp37 Assay, % Decrease RFU/30 min, without GSH [2]: 13.5 % Decrease RFU/30 min
- zinc ejecting ability with GSH ([2]; GSH, in words): little effected by GSH
- toxicity with GSH ([3]; 2 equivalents of GSH, in words): went down
- IC50 [3]: 18 µM

Compound: N[C@@H](CCC(=O)N[C@@H](CS)C(=O)NCC(=O)O)C(=O)O [glutathione]
- pKa of the thiol ([13]; bound to GST): ~ 6.5
- pKa of the thiol ([13]; without enzyme binding): 9.0

Compound: COC(=O)C1=C(C)[S+]([O-])SC1 (centres unmarked) [53d]
- Emax at 10 µM [1, 17]: 41.4%
- NCp7 Trp37 Assay, % Decrease RFU/30 min, without GSH [2]: 14.3 % Decrease RFU/30 min
- IC50 [3]: 16.9 µM

Compound: CC(=O)NS(=O)(=O)c1ccc(NC(=O)c2ccccc2SSc2ccccc2C(=O)Nc2ccc(S(=O)(=O)NC(C)=O)cc2)cc1 [3, R'=C(O)NH-phenyl-SO2 NHC(O)CH3]
- ratio of electronegativity to hardness (.chi.^2 /.eta.) [11]: 0.3098

Compound: COc1ccc(C2=C(C)COS2=O)cc1 (centres unmarked) [compound 121, 4-Methyl-5-(4-methoxy)phenyl-1,2-oxathiol-4-en-1-yl Oxide]
- activation at 100 µM ([5]; Mus musculus, BNL CL.2, BNL.CL2 cells, 100 micromolar, 24 hours, read-out: increase in GST alpha mRNA levels): 300%
- inducing activity (GST, NQO1 and Ferritin H) ([5]; in words): high levels of inducing activity

Compound: COC(=O)C1=C(c2ccccc2)[S+]([O-])SC1 (centres unmarked) [DCF 070]
- Ferritin H induction (mRNA) [4]: +
- GST α induction (mRNA) ([5]; 24 hours): +
- NQO1 induction (mRNA) [6]: +

Compound: CCOC(=O)C1=C(c2ccccc2)[S+]([O-])SC1 (centres unmarked) [53b]
- Emax at 10 µM [1, 17]: 31.6%
- NCp7 Trp37 Assay, % Decrease RFU/30 min, without GSH [2]: 6.5 % Decrease RFU/30 min
- IC50 [3]: 45.7 µM

Compound: CC1=C(C(=O)OC(C)C)CS[S+]1[O-] (centres unmarked) [53e]
- Emax at 10 µM [1, 17]: 40%
- NCp7 Trp37 Assay, % Decrease RFU/30 min, without GSH [2]: 10.4 % Decrease RFU/30 min
- IC50 [3]: 18.4 µM

Compound: CC(=O)OCC1(COC(C)=O)CSS(=O)(=O)C1 [compound 7]
- ejection of zinc from NCp7 [7]: promoted ejection of zinc
- TSQ NCp7 Assay [7]: 18
- NCp7 Trp37 Assay, % Decrease RFU/30 min, without GSH [14]: 18 % Decrease RFU/30 min
- EC50 [8]: 21 µM
- activity against replication of monocytotropic HIV-1ADA [8]: active
- EC50 [9]: 9.8 µM
- activity against HIV-1 in XTT-based cytoprotection assay [9]: active
- IC50 [12]: > 100 µM
- IC50 [10]: 30 µM

Compound: CCOC(=O)C1=C(c2ccccc2)S(=O)OC1 (centres unmarked) [(8) 53g]
- Emax at 100 µM ([1]; Human immunodeficiency virus 1, CEM-SS, @ 100 μM, read-out: Maximum cytoprotection): 12%
- NCp7 Trp37 Assay, % Decrease RFU/30 min, without GSH [2]: 26 % Decrease RFU/30 min
- IC50 [3]: 213 µM

Compound: C=CCS[S+]([O-])CC=C (centres unmarked) [allicin]
- elevation of GST levels [15]: elevate levels of GST
- elevation of GST levels [16]: elevate levels of GST

Compound: NS(=O)(=O)c1ccc(NC(=O)c2ccccc2SSc2ccccc2C(=O)Nc2ccc(S(N)(=O)=O)cc2)cc1 [3, R'=C(O)NH-phenyl-SO2 NH2]
- ratio of electronegativity to hardness (.chi.^2 /.eta.) [11]: 0.2935

Compound: COC(=O)C1=C(C)S(=O)OC1 (centres unmarked) [(10) 53g]
- Emax at 3.2 µM ([1]; Human immunodeficiency virus 1, CEM-SS, @ 3.2 μM, read-out: Maximum cytoprotection): 32.6%
- NCp7 Trp37 Assay, % Decrease RFU/30 min, without GSH [2]: 0.2 % Decrease RFU/30 min
- IC50 [3]: 5.3 µM

Compound: COC(=O)C1=C(C2=CCCCC2)[S+]([O-])SC1 (centres unmarked) [ED 13.4]
- Ferritin H induction (mRNA) [4]: +
- GST α induction (mRNA) ([5]; 24 hours): +
- NQO1 induction (mRNA) [6]: +
